Measured values from article PMC5108032, “Discovery of a Quinoline-4-carboxamide Derivative with a Novel Mechanism of Action, Multistage Antimalarial Activity, and Potent in Vivo Efficacy” (Journal of Medicinal Chemistry, 2016).
Where “and” joins values, the source holds several entries; their conditions need not be identical. Equal entries are not always repeated. Values belong to the molecule of their own block, whether it stands above or below them.

Assays:
P. berghei ANKA strain = assay: In vivo antimalarial efficacy in the P. berghei mouse model (Peter's test); design: species or system Plasmodium berghei in female NMRI mice; conditions: 4 × 30 mg/kg oral, once daily; mice cured / mice in group; 30 mg/kg
Description: Compound 41 was dosed as a bolus solution intravenously at 1 mg free base/kg (dose volume: 5 mL/kg; dose vehicle: 5% DMSO;saline) or by gavage orally as solution at 3 mg free base/kg (dose volume: 10 mL/kg; Dose vehicle: 0.5% w/v hydroxypropylmethylcellulose with 0.4% v/v Tween 80 and 0.5% v/v benzyl alcohol) to male Sprague Dawley rats (n=3/dose route). Blood samples were taken from each rat at 5, 15, 30 min, 1, 2, 4, 6, 8, 24 and 30 h post-dose, mixed with two volumes of distilled water and stored frozen until UPLC/MS/MS analysis.
Pharmacokinetic parameters were derived from the blood concentration time curve for each compound using PKsolutions software v 2.0 (Summit Research Services, USA).
In vivo antimalarial efficacy studies in P. berghei. (Swiss TPH)
In vivo efficacy was conducted as previously described10 with the modification that female NMRI mice (n = 3) were infected with a GFP-transfected P. berghei ANKA strain (donated by A. P. Waters and C. J. Janse, Leiden University, The Netherlands), and parasitaemia determined (96 h after infection) using standard flow cytometry techniques. Compounds 1, 25, 27, 30 and 49 were prepared in 10% DM SO, 40% PEG 400 and 50% water prior to administration orally, once daily for 4 days.
Compounds 40, 41, 43 and 44 were prepared in a non-solubilizing, standard suspension vehicle called HPMC (0.5% [wt/vol] hydroxypropylmethylcellulose, 0.5% [vol/vol] benzyl alcohol, 0.4% [vol/vol] Tween 80, and 0.9% [wt/vol] sodium chloride in water) prior to administration orally, once daily for 4 days. Blood samples were collected on day 4 (96 h after infection) in two volumes water. Animals […]
and then hourly up to 4 h after dosing each day. The animals were selected randomly for each group

Rat pharmacokinetics = assay type: in vivo, male Sprague Dawley rats; conditions: male Sprague Dawley rat, intravenous at 1 mg/kg
Description: (100 µl) was then removed from both acceptor and donor compartments and mixed with acetonitrile (80 µl) containing an internal standard. The samples were centrifuged (10 min, 5 °C, 3270 g) to sediment precipitated protein and sealed prior to UPLC-MS/MS analysis using a Quattro Premier XE (Waters Corp, USA). Pe was calculated as shown in the below equation:
Pe (nm/sec) = 107 x - In [1 - CA (t) / Cequi]
CA(t) = peak area of compound present in acceptor well at time t = 18000 sec Cequi = [CD(t) * VD + CA(t) * VA] / (VD + VA)
VA = acceptor well volume
CD(t) = peak area of compound present in donor well at time t = 18000 sec Recovery of compound from donor and acceptor wells was calculated and data was only accepted when recovery exceeded 70 %. […]
Compound was dosed as a bolus solution intravenously (12) at 3mg free base/kg (dose volume: 5 mL/kg; dose vehicle: 10% DMSO, 90% saline) to female NMRI mice (n=3) or dosed orally (12 and 13) by gavage as a solution at 10 mg free base/kg (dose volume: 10mL/kg; Dose vehicle: 5 or 10% DMSO; 40% PEG400; 50 or 55% distilled water) to female NMRI mice (n=3/dose level). […] The level of each compound in mouse blood was determined by UPLC-MS/MS as previously reported.9 Pharmacokinetic parameters were derived from the blood concentration time curve using PKsolutions software v 2.0 (Summit Research Services, USA). […]

[1] = Rat hepatic portal vein study; assay type: in vivo
[2] = Intrinsic clearance in rat hepatocytes; assay type: in vitro ADME

SMILES: O=C(NCCN1CCCC1)c1cc(NCCCCN2CCOCC2)nc2ccc(Cl)cc12 [Compound 27, 6-Chloro-2-((4-morpholinobutyl)amino)-N-(2-(pyrrolidin-1-yl)ethyl)quinoline-4-carboxamide]
cure (P. berghei ANKA strain): one out of three and 1/3

Clb (Rat pharmacokinetics): 32 mL min^–1 kg^–1
SMILES: O=C(NCCN1CCCC1)c1cc(-c2ccc(CN3CCOCC3)cc2F)nc2ccc(F)cc12 [Compound 41]

hepatic extraction [1]: 76% | intrinsic clearance in rat hepatocytes (Cli) [2]: 3 mL min^–1 g^–1
SMILES: O=C(NCCN1CCCC1)c1cc(NCCC2CCOCC2)nc2ccc(Cl)cc12 [Compound 30, 6-Chloro-N-(2-(pyrrolidin-1-yl)ethyl)-2-((2-(tetrahydro-2H-pyran-4-yl)ethyl)amino)quinoline-4-carboxamide]
